Results reported in patent publication US8791143B2, “Anthranilic diamide derivatives having cyclic side-chains” (priority 2010, dated 2014).
Where two headings read alike, the source gives them in different places.

Tests used:
[1] = tested on: caterpillars of the armyworm (Spodoptera frugiperda); experiment: Spodoptera frugiperda test (SPODFR spray treatment); format: in vivo; conditions: Spodoptera frugiperda, 168 h, read-out: activity in % (caterpillars killed)
[2] = log P by HPLC on reversed-phase columns (EEC Directive 79/831 Annex V.A8); format: physicochemical
[3] = tested on: larvae of the mustard beetle (Phaedon cochleariae); experiment: Phaedon test (PHAECO spray treatment); conditions: Phaedon cochleariae, 168 h, read-out: activity in % (beetle larvae killed)
[4] = application rate 100 g/ha, after 7 days
[5] = reversed-phase C18 HPLC column, pH 2.7, HPLC reversed-phase C18, acidic range pH 2.7 (HCOOH), only or first value of the cell, read-out: log P

Structure (SMILES)	chromatographic logP [2, 5]	pest or weed control at 100 g/ha [1] [%]	chromatographic logP ([2]; pH 2.7, log P)	pest or weed control at 100 g/ha [3] [%]	pest or weed control at 100 g/ha [1, 4] [%]
Cc1cc(Cl)cc(C(=O)NCc2ccc(F)cc2F)c1NC(=O)c1cc(Cn2nnc(C(F)(F)F)n2)nn1-c1ncccc1Cl [Example 107]		100	3.9	100	
Cc1cc(Cl)cc(C(=O)NC(C)c2cccc(Cl)c2)c1NC(=O)c1cc(Cn2nnc(C(F)(F)F)n2)nn1-c1ncccc1Cl (stereo not drawn) [Example 110]		100	4.31	100	
Cc1cc(Cl)cc(C(=O)NC(C)c2ccc(Cl)cc2)c1NC(=O)c1cc(Cn2nnc(C(F)(F)F)n2)nn1-c1ncccc1Cl (stereo not drawn) [Example 111]		100	4.3	100	
Cc1ccccc1C(C)NC(=O)c1cc(Cl)cc(C)c1NC(=O)c1cc(Cn2nnc(C(F)(F)F)n2)nn1-c1ncccc1Cl (stereo not drawn) [Example 112]		100	4.2	100	
Cc1cccc(C(C)NC(=O)c2cc(Cl)cc(C)c2NC(=O)c2cc(Cn3nnc(C(F)(F)F)n3)nn2-c2ncccc2Cl)c1 (stereo not drawn) [Example 113]		100	4.28	100	
Cc1ccc(C(C)NC(=O)c2cc(Cl)cc(C)c2NC(=O)c2cc(Cn3nnc(C(F)(F)F)n3)nn2-c2ncccc2Cl)cc1 (stereo not drawn) [Example 114]		100	4.24	100	
Cc1cc(Cl)cc(C(=O)NCc2cccc(Cl)c2)c1NC(=O)c1cc(Cn2nnc(C(F)(F)F)n2)nn1-c1ncccc1Cl [Example 116]		100	4.1	100	
Cc1ccccc1CNC(=O)c1cc(Cl)cc(C)c1NC(=O)c1cc(Cn2nnc(C(F)(F)F)n2)nn1-c1ncccc1Cl [Example 119]		100	4.03	100	
Cc1cc(Cl)cc(C(=O)NC(C)c2ccc(F)cc2)c1NC(=O)c1cc(Cn2nnc(C(F)(F)F)n2)nn1-c1ncccc1Cl (stereo not drawn) [Example 122]		100	4	100	
Cc1cc(Cl)cc(C(=O)NCc2ccccc2)c1NC(=O)c1cc(Cn2nc(C(F)(F)F)c(C(F)(F)F)n2)nn1-c1ncccc1Cl [Example 134]	4.52			100	100
Cc1cc(C#N)cc(C(=O)NCc2ccccc2)c1NC(=O)c1cc(Cn2nc(C(F)(F)F)c(C(F)(F)F)n2)nn1-c1ncccc1Cl [Example 136]	4.15			100	100
Cc1cc(C#N)cc(C(=O)NCc2ccc(Cl)c(Cl)c2)c1NC(=O)c1cc(Cn2nnc(C(F)(F)F)n2)nn1-c1ccccc1Cl [Example 137]	3.99			100	100
Cc1cc(Cl)cc(C(=O)NC(C)c2cccc(F)c2)c1NC(=O)c1cc(Cn2nnc(C(F)(F)F)n2)nn1-c1ncccc1Cl (stereo not drawn) [Example 143]		100	4	100	
Cc1cc(I)cc(C(=O)NCc2ccccc2OC(F)(F)F)c1NC(=O)c1cc(Cn2nnc(C(F)(F)C(F)(F)F)n2)nn1-c1ncccc1Cl [Example 146]	4.84			100	100
Cc1cc(I)cc(C(=O)NCc2ccc(OC(F)(F)F)cc2)c1NC(=O)c1cc(Cn2nnc(C(F)(F)C(F)(F)F)n2)nn1-c1ncccc1Cl [Example 148]	4.85			100	100
Cc1cc(I)cc(C(=O)NCc2ccc(OC(F)F)cc2)c1NC(=O)c1cc(Cn2nnc(C(F)(F)C(F)(F)F)n2)nn1-c1ncccc1Cl [Example 149]	4.35			100	100
Cc1cc(I)cc(C(=O)NCc2ccccc2OC(F)F)c1NC(=O)c1cc(Cn2nnc(C(F)(F)C(F)(F)F)n2)nn1-c1ncccc1Cl [Example 157]	4.45			100	100

Continued, in another order:

chromatographic logP [2, 5]	Structure (SMILES)	pest or weed control at 100 g/ha [1] [%]	chromatographic logP ([2]; pH 2.7, log P)	pest or weed control at 100 g/ha [3] [%]	pest or weed control at 100 g/ha [1, 4] [%]
4.01	Cc1cc(Cl)cc(C(=O)NCc2ccc(F)c(F)c2F)c1NC(=O)c1cc(Cn2nnc(C(F)(F)F)n2)nn1-c1ncccc1Cl [Example 108]			100	100
3.98	Cc1cc(Cl)cc(C(=O)NCc2cc(F)cc(F)c2F)c1NC(=O)c1cc(Cn2nnc(C(F)(F)F)n2)nn1-c1ncccc1Cl [Example 109]			100	100
5.06	Cc1cc(Cl)cc(C(=O)NC(C)c2ccc(C(C)(C)C)cc2)c1NC(=O)c1cc(Cn2nnc(C(F)(F)F)n2)nn1-c1ncccc1Cl (stereo not drawn) [Example 115]			100	100
4.52	Cc1cc(Cl)cc(C(=O)NC(C)c2ccc(OC(F)(F)F)cc2)c1NC(=O)c1cc(Cn2nnc(C(F)(F)F)n2)nn1-c1ncccc1Cl (stereo not drawn) [Example 117]			100	100
4.21	Cc1cc(Cl)cc(C(=O)NCc2ccccc2C(F)(F)F)c1NC(=O)c1cc(Cn2nnc(C(F)(F)F)n2)nn1-c1ncccc1Cl [Example 118]			100	100
4.42	Cc1cc(Cl)cc(C(=O)NC(C)c2cccc(C(F)(F)F)c2)c1NC(=O)c1cc(Cn2nnc(C(F)(F)F)n2)nn1-c1ncccc1Cl (stereo not drawn) [Example 120]			100	100
4.32	Cc1cc(Cl)cc(C(=O)NC(C)c2ccc(C(F)(F)F)cc2)c1NC(=O)c1cc(Cn2nnc(C(F)(F)F)n2)nn1-c1ncccc1Cl (stereo not drawn) [Example 121]			100	100
4.35	Cc1cc(Cl)cc(C(=O)NC(C)c2ccccc2C(F)(F)F)c1NC(=O)c1cc(Cn2nnc(C(F)(F)F)n2)nn1-c1ncccc1Cl (stereo not drawn) [Example 123]			100	100
4.57	Cc1cc(Cl)cc(C(=O)NC(C)c2cccc(Cl)c2Cl)c1NC(=O)c1cc(Cn2nnc(C(F)(F)F)n2)nn1-c1ncccc1Cl (stereo not drawn) [Example 124]			100	100
4.42	Cc1cc(Cl)cc(C(=O)NC(C)c2ccc(Cl)cc2F)c1NC(=O)c1cc(Cn2nnc(C(F)(F)F)n2)nn1-c1ncccc1Cl (stereo not drawn) [Example 125]			100	100
4.46	Cc1cc(Cl)cc(C(=O)NCc2ccc(OC(F)(F)F)cc2)c1NC(=O)c1cc(Cn2nnc(C(F)(F)F)n2)nn1-c1ncccc1Cl [Example 126]			100	100
3.68	COC(=O)c1ccc(CNC(=O)c2cc(Cl)cc(C)c2NC(=O)c2cc(Cn3nnc(C(F)(F)F)n3)nn2-c2ncccc2Cl)cc1 [Example 127]			100	100
3.85	Cc1cc(Cl)cc(C(=O)N[C@H](C)c2ccc([N+](=O)[O-])cc2)c1NC(=O)c1cc(Cn2nnc(C(F)(F)F)n2)nn1-c1ncccc1Cl [Example 128]			100	100
3.86	Cc1cc(Cl)cc(C(=O)N[C@@H](C)c2ccc([N+](=O)[O-])cc2)c1NC(=O)c1cc(Cn2nnc(C(F)(F)F)n2)nn1-c1ncccc1Cl [Example 129]			100	100
4.67	Cc1cc(Cl)cc(C(=O)NC(C)c2ccc(Cl)cc2Cl)c1NC(=O)c1cc(Cn2nnc(C(F)(F)F)n2)nn1-c1ncccc1Cl (stereo not drawn) [Example 141]			100	100
4.58	Cc1cc(Cl)cc(C(=O)NC(C)c2ccc(Cl)c(Cl)c2)c1NC(=O)c1cc(Cn2nnc(C(F)(F)F)n2)nn1-c1ncccc1Cl (stereo not drawn) [Example 142]			100	100
4.58	Cc1cc(Cl)cc(C(=O)NC(C)c2cc(Cl)ccc2Cl)c1NC(=O)c1cc(Cn2nnc(C(F)(F)F)n2)nn1-c1ncccc1Cl (stereo not drawn) [Example 144]			100	100
3.92	Cc1cc(F)cc(C(=O)NCc2ccccc2OC(F)(F)F)c1NC(=O)c1cc(Cn2nnc(C(F)(F)F)n2)nn1-c1ncccc1Cl [Example 154]			100	100
3.92	Cc1cc(F)cc(C(=O)NCc2ccc(OC(F)(F)F)cc2)c1NC(=O)c1cc(Cn2nnc(C(F)(F)F)n2)nn1-c1ncccc1Cl [Example 155]			100	100
4.47	Cc1cc(I)cc(C(=O)NCc2cccc(OC(F)(F)F)c2)c1NC(=O)c1cc(Cn2nnc(C(F)(F)F)n2)nn1-c1ncccc1Cl [Example 156]			100	100
4	Cc1cc(Cl)cc(C(=O)NCc2ccccc2OC(F)F)c1NC(=O)c1cc(Cn2nnc(C(F)(F)F)n2)nn1-c1ncccc1Cl [Example 158]			100	100
3.95	Cc1cc(Cl)cc(C(=O)NCc2cccc(OC(F)F)c2)c1NC(=O)c1cc(Cn2nnc(C(F)(F)F)n2)nn1-c1ncccc1Cl [Example 159]			100	100
